One assay addresses T1, KIAA1363 (Mus musculus, UniProt Q8BLF1).
T1 construct: ABPP analysis of KIAA1363 activity in mouse brain membrane proteome; from tissue; host or cells: mouse brain (membrane fraction)
T1 sequence (Q8BLF1 1-408): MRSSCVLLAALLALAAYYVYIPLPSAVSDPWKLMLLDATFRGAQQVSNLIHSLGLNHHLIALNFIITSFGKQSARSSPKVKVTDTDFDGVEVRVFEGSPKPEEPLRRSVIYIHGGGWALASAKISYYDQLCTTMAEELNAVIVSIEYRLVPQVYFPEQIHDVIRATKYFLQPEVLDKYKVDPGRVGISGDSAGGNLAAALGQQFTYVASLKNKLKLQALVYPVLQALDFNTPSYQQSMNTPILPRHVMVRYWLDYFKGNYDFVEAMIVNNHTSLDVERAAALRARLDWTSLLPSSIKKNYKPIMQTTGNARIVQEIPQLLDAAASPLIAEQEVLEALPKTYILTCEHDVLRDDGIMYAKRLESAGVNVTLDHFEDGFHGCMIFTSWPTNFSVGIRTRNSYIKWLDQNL
The assay can be described thus: Gel-based competitive ABPP of KIAA1363 in mouse brain membrane proteome (FP-rhodamine). The format is biochemical. Summed up: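 Mouse brain membrane fraction (100,000×g pellet) in PBS pH 7.4, preincubated with inhibitor 30 min, then labelled with 1 μM FP-rhodamine for 30 min. Remaining KIAA1363 activity read by SDS/PAGE in-gel fluorescence. IC50 averaged from three replicates.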

In the next assay the target is T2, HSL (Mus musculus, UniProt P54310).
T2 construct: ABPP analysis of HSL from a rosiglitazone-differentiated 3T3-10T1/2 adipocyte proteome; endogenous in cells; host or cells: rosiglitazone-differentiated 3T3-10T1/2 adipocytes
T2 sequence (P54310 1-759): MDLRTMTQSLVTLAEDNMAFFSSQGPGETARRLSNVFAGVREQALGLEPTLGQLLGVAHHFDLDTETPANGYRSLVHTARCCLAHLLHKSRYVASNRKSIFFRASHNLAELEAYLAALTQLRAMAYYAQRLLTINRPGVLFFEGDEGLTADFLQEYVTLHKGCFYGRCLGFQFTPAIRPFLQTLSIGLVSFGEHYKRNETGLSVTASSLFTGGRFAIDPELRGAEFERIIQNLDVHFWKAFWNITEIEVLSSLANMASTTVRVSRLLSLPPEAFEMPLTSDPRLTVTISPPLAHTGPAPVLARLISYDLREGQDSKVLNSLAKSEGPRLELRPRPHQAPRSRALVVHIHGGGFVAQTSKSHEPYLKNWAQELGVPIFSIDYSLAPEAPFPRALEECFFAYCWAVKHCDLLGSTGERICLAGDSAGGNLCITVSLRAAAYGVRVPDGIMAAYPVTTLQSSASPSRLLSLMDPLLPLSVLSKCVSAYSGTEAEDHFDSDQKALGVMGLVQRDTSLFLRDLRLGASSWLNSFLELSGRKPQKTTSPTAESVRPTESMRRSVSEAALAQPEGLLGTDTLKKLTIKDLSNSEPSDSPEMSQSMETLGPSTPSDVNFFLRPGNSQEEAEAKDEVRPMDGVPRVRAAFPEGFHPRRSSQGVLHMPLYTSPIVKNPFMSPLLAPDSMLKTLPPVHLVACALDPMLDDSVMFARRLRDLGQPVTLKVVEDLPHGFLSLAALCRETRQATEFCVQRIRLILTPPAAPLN
The assay can be described thus: Competitive ABPP of HSL in rosiglitazone-differentiated 3T3-10T1/2 adipocyte proteome. The format is biochemical. How it is done:
For ABPP experiments, cell lysate and tissue proteomes were treated with 1 μM FP-rhodamine for 30 min at room temperature (50 μL total reaction volume) as described previously (Nomura et al., 2010). Reactions were quenched with one volume of standard 4×SDS/PAGE loading buffer (reducing), separated by SDS/PAGE (10% acrylamide), and visualized in-gel with a Hitachi FMBio IIe flatbed fluorescence scanner (MiraiBio). Inhibitors were preincubated prior (30 min or 4 h at 37° C. in vitro or in situ, respectively) to the addition of FP-rhodamine.

The test system of assay [1] is MAGE levels in PC3 and DU145 cells. Nature of the assay: Lipid (MAGE) measurements in cancer cells. To be noted: for MAGE levels: 10 μM, 4 h in situ. The format is cell-based, human. How it is done:
(§1) Inhibitors were dissolved in DMSO and diluted into media or buffer prior to cell or proteome treatment, respectively. For in vitro treatment, final DMSO concentration was 4%. For in situ treatments of cells for ABPP, lipid measurements, migration, cell-survival, and invasion assays, 2×10^6 cells were seeded in 6 cm dishes (˜100% confluency) 24 h prior to inhibitor pre-treatment (in DMSO at 0.1% final concentration) in serum-free media (3 mL) for the designated time before harvesting cells for ABPP or lipid measurements or before the initiation of migration, cell-survival, and invasion assays.
Lipid measurements were performed in cancer cells as previously described (Chiang et al., 2006). Briefly, frozen cell pellets from cells harvested after 4 h serum starvation were extracted in 2:1:1 chloroform:methanol:Tris buffer pH 8.0 by dounce homogenization with 10 nmol of internal standard C12 MAGE. The organic layer was removed, dried under N2, and resuspended in 120 μL of chloroform, and 30 μL was injected into an Agilent 1100-MSD LC-MS. MAGE levels were quantified by measuring the area under the peak and were normalized to the C12 MAGE internal standard.

In assay [2] the test system is PC3 and DU145 cells. Nature of the assay: Cell migration assay (Transwell). In kind it is cell-based, human. To be noted: for PC3 and DU145 migration: 10 μM, 4 h in situ. As to the method:
as §1
(§2) Cell migration, cell survival, and invasion studies were performed as previously described (Nomura et al., 2010). Briefly, migration assays were performed in Transwell chambers (Corning) with 8 μm pore-sized membranes coated with 10 μg/mL collagen at 37° C. for LNCaP (24 h), PC3 (4 h) and DU145 cells (24 h), respectively. Cell survival assays were performed using the Cell Proliferation Reagent WST-1 (Roche) Invasion assays were conducted using the BD Matrigel Invasion Chambers per the manufacturer's protocol. Inhibitors were preincubated for the stated duration before seeding cells into migration, cell-survival, or invasion chambers. Prior to seeding the cells in these chambers, cells were serum-starved for 4 h. Inhibitors were also present during the migration, cell-survival, and invasion assays.

The subject of assay [3] is PC3 and DU145 cells. Nature of the assay: Invasion assay (Matrigel chambers). In kind it is cell-based, human. To be noted: for PC3 and DU145 invasion: 10 μM, 4 h in situ. As to the method: as §1, §2
The subject of assay [4] is PC3 and DU145 cells. The assay can be described thus: Serum-free cell survival assay (WST-1). In kind it is cell-based, human. The note with it: for PC3 and DU145 serum-free cell survival: 10 μM, 4 h in situ. As to the method:
as §1, §2
(Formazan colour is commonly taken as a measure of viable cells.)

Setting [5] is: competitive ABPP in mouse brain proteome, n=3, read-out: IC50 for KIAA1363 (FIG. 2D).
[6] abbreviates: mouse brain KIAA1363, read-out: IC50 for KIAA1363.
Where [7] appears, read: mouse brain membrane proteome, inhibitor 30 min before FP-rhodamine (1 μM, 30 min), averages of three replicates, read-out: IC50 (KIAA1363).

Where two headings read alike, the source gives them in different places.

Broadly, the IC50 is the concentration at which inhibition is half-maximal. Take `COc1ccc(CNC(=O)Oc2cccc3c2OC(C)(C)C3)cc1` [JW148, 2,2-dimethyl-2,3-dihydrobenzofuran-7-yl 4-methoxybenzylcarbamate]: the IC50 on KIAA1363 (setting [5]) was 200 nM; at KIAA1363 (setting [6]) it was about 200 nM; at KIAA1363 (setting [7]), 117 nM; on KIAA1363 (screened against KIAA1363, Table 1, read-out: IC50 values of less than 1 micromolar), under 1000 nM. Also, at HSL, the “Cross-reactivity with HSL” value was “cross-reactivity”. Moreover, the MAGE levels entry in assay [1] is given as “lower MAGE levels”. The “PC3 and DU145 migration” value with PC3 and DU145 cells [2] is “impair”. Besides, the “PC3 and DU145 invasion” value in the assay on PC3 and DU145 cells [3] is given as “impair”. The “PC3 and DU145 serum-free cell survival” value with PC3 and DU145 cells [4] is given as “impair”.

For `CC(C)c1ccccc1OC(=O)NCCc1ccc2ccccc2c1` [JW480, 2-isopropylphenyl (2-(naphthalen-2-yl)ethyl)carbamate], the IC50 is 20 nM on KIAA1363 (setting [5]); 20 nM at KIAA1363 (setting [6]); 13.9 nM on KIAA1363 (setting [7]); about 10 nM at KIAA1363 (screened against KIAA1363, Table 1, read-out: IC50 values of around 10 nanomolar (most potent)). At HSL, the “Cross-reactivity with HSL” value is on record as “negligible cross-reactivity”. Moreover, the MAGE lipids entry in assay [1] (1 μM, 48 hr) is reported as “significant reductions”. Further, the MAGE levels entry in assay [1] is “lower MAGE levels”. For the same compound, the “Migration of PC3 cells” value in the assay on PC3 and DU145 cells [2] (1 μM, 48 h in situ) was “reduced”. Also, the “PC3 and DU145 migration” value in the assay with PC3 and DU145 cells [2] was “impair”. Besides, the “Invasion of PC3 cells” value with PC3 and DU145 cells [3] (1 μM, 48 h in situ) was “reduced”. The “PC3 and DU145 invasion” value in the assay with PC3 and DU145 cells [3] is “impair”. The “Serum-free cell survival of PC3 cells” value in the assay with PC3 and DU145 cells [4] (1 μM, 48 h in situ) is “reduced”. The “PC3 and DU145 serum-free cell survival” value in the assay with PC3 and DU145 cells [4] was “impair”.

Values taken from patent US9249128B2 (priority 2010, dated 2016).
